In the NIST ThermoML archive (doi:10.1021/je900127m):
± gives the expanded uncertainty stated by the source.

Experiment: xn = mol fraction of the nth substance listed
Settings: 313.15 K, Fluid (supercritical or subcritical phases), Bellows volumetry

O=C=O [carbon dioxide] + CCO
Settings | mass density [kg/m3]
1000 kPa, x1 = 1 | 17.9 ± 0.2
2000 kPa, x1 = 0.1 | 787.2 ± 0.3
2000 kPa, x1 = 1 | 37.1 ± 0.2
3000 kPa, x1 = 0.1 | 788.2 ± 0.3
3000 kPa, x1 = 1 | 58.7 ± 0.2
4000 kPa, x1 = 0.1 | 789.2 ± 0.3
4000 kPa, x1 = 0.2 | 799.4 ± 0.3
4000 kPa, x1 = 1 | 83.5 ± 0.2
5000 kPa, x1 = 0.1 | 790.2 ± 0.3
5000 kPa, x1 = 0.2 | 800.6 ± 0.3
5000 kPa, x1 = 1 | 112.7 ± 0.2
6000 kPa, x1 = 0.1 | 791.1 ± 0.3
6000 kPa, x1 = 0.2 | 801.9 ± 0.3
6000 kPa, x1 = 0.3 | 811.2 ± 0.3
6000 kPa, x1 = 0.4 | 816.6 ± 0.2
6000 kPa, x1 = 1 | 148.8 ± 0.2
7000 kPa, x1 = 0.1 | 792.1 ± 0.3
7000 kPa, x1 = 0.2 | 803.1 ± 0.3
7000 kPa, x1 = 0.3 | 812.7 ± 0.3
7000 kPa, x1 = 0.4 | 818.7 ± 0.2
7000 kPa, x1 = 0.5 | 821.1 ± 0.2
7000 kPa, x1 = 1 | 197.3 ± 0.2
8000 kPa, x1 = 0.1 | 793.1 ± 0.3
8000 kPa, x1 = 0.2 | 804.2 ± 0.3
8000 kPa, x1 = 0.3 | 814.3 ± 0.3
8000 kPa, x1 = 0.4 | 820.8 ± 0.2
8000 kPa, x1 = 0.5 | 824 ± 0.2
8000 kPa, x1 = 0.6 | 818.8 ± 0.3
8000 kPa, x1 = 0.7 | 804.5 ± 0.5
8000 kPa, x1 = 0.8 | 771.1 ± 3.7
8000 kPa, x1 = 1 | 276.7 ± 0.4
9000 kPa, x1 = 0.1 | 794 ± 0.3
9000 kPa, x1 = 0.2 | 805.3 ± 0.3
9000 kPa, x1 = 0.3 | 815.7 ± 0.3
9000 kPa, x1 = 0.4 | 822.8 ± 0.2
9000 kPa, x1 = 0.5 | 826.8 ± 0.2
9000 kPa, x1 = 0.6 | 823 ± 0.3
9000 kPa, x1 = 0.7 | 811.5 ± 0.4
9000 kPa, x1 = 0.8 | 784.8 ± 0.9
9000 kPa, x1 = 0.899 | 729.1 ± 1.5
9000 kPa, x1 = 0.95 | 667 ± 4.9
9000 kPa, x1 = 1 | 483.4 ± 0.4
10000 kPa, x1 = 0.1 | 795 ± 0.3
10000 kPa, x1 = 0.2 | 806.6 ± 0.3
10000 kPa, x1 = 0.3 | 817.2 ± 0.3
10000 kPa, x1 = 0.4 | 824.7 ± 0.2
10000 kPa, x1 = 0.5 | 829.4 ± 0.2
10000 kPa, x1 = 0.6 | 827 ± 0.2
10000 kPa, x1 = 0.7 | 817.8 ± 0.4
10000 kPa, x1 = 0.8 | 795.8 ± 0.7
10000 kPa, x1 = 0.899 | 752.3 ± 1.1
10000 kPa, x1 = 0.95 | 709.8 ± 2.5
10000 kPa, x1 = 1 | 627.4 ± 0.4

CCO [ethanol] + O=C=O
x2 = 0
Settings | mass density [kg/m3]
1000 kPa | 773.1 ± 0.2
2000 kPa | 773.9 ± 0.2
3000 kPa | 774.8 ± 0.2
4000 kPa | 775.5 ± 0.2
5000 kPa | 776.4 ± 0.2
6000 kPa | 777.2 ± 0.2
7000 kPa | 778 ± 0.2
8000 kPa | 778.8 ± 0.2
9000 kPa | 779.6 ± 0.2
10000 kPa | 780.4 ± 0.2
